Results as given in paper PMC12314892, “Macrocyclic Phage Display for Identification of Selective Protease Substrates” (Journal of the American Chemical Society, 2025).
*1 amine or outer side, *2 acyl side, *3 side chain or, on linkers, in order; H or OH if unused. Where a SMILES comes first, the peptide text is derived from it. Bridges are numbered along the chain shown (N, C = ends). The star is where a group is joined. X1 = NC(=O)Cc1cc(=O)oc2cc(NC(=O)[C@@H]3CCCN3C(=O)Cn3nc(C[*:1])cc3C[*:2])ccc12; X2 = NC(=O)Cc1cc(=O)oc2cc(NC(=O)[C@@H]3CCCN3C(=O)Cn3nc(C[*:2])cc3C[*:1])ccc12; AMC = Cc1cc(=O)oc2cc(N*)ccc12; Cbz = O=C(OCc1ccccc1)*

How the values were obtained:
[1] = biological target: T1, Recombinant Human Prolyl Oligopeptidase/PREP (Homo sapiens, UniProt P48147); test: Kinetic evaluation of substrates; assay type: biochemical; conditions: for SI (selectivity index, coefficient of the proteases kcat/Km), FAPα vs PREP: kcat/KM FAPα over kcat/KM PREP
T1 construct: purchased R&D Systems 4308-SE-010
T1 sequence (P48147 1-710): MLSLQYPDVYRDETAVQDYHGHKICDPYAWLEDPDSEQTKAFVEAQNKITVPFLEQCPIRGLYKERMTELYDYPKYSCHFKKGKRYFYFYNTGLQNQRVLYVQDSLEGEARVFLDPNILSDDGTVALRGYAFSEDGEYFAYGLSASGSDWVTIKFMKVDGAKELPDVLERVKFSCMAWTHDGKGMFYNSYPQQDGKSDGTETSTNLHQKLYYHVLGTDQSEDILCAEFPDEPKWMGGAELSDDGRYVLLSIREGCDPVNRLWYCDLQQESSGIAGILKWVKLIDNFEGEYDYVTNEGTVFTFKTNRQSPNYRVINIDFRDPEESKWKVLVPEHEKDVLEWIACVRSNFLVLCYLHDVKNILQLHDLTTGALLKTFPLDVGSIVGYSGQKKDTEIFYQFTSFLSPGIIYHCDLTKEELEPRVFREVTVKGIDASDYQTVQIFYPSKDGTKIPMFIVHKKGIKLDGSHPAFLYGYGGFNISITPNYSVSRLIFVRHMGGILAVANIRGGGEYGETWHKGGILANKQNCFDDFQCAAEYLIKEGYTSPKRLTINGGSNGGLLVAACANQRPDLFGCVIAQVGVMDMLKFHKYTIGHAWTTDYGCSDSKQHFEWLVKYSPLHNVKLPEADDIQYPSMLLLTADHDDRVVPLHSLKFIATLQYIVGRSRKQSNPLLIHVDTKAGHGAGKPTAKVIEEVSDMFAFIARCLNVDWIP
Procedure: (§1) Fluorogenic Substrate Cleavage Assay
(§2) The following proteases were used for the activity assay: Recombinant Human FAPα Protein, CF (R&D Systems, Catalog No.: 3715-SE-010), Recombinant Human Prolyl Oligopeptidase/PREP Protein, CF (R&D Systems, Catalog No.: 4308-SE-010). Recombinant Human DPP9 Protein, CF (R&D Systems, Catalog No.: 5419-SE-010). Recombinant Human DPP4 Protein (Sino Biological, Catalog No.: 10688-HNCH-10). The buffers used for the activity assay were: FAPα - 50 mM Tris, 1 M NaCl, 1 mg/mL BSA, pH 7.5, PREP- 25 mM Tris, 250 mM NaCl, 2.5 mM DTT, pH 7.5 (DTT was freshly added immediately before use), DPP9- 25 mM Tris, pH 7.5, DPP4- 25 mM Tris, pH
(§3) 7.5. The following commercial substrates were used: zGP-AMC (Bachem,Catalog No.: […]
(§4) conducted in Greiner Bio-One black microplates of 384 wells and polystyrene F-bottom (Catalog No.: 784076). All compounds were dissolved in DMSO at a concentration of 10 mM and then diluted into the respective buffer to the desired final concentration. The protease was added to the specified concentration before the fluorescence measurements. For fluorescence measurements, 2 μL of substrate was further diluted into 6 μL of buffer, followed by addition of 2 μL of enzyme in buffer. For no enzyme controls 2 μL of substrate was diluted into 8 μL of buffer.
(§5) The fluorescence was measured using a Cytation 3 plate reader (BioTek). All experiments have at least three technical replicates. All assays were conducted at 37°C for a minimum of 90 min, unless otherwise noted. Fluorescence measurements were performed at ex/em, 355/460 nm for ACC substrates. The substrates velocity was quantified by calculating the slope of the linear phase of the reaction as relative fluorescence units (RFU) per min.
(§6) Kinetic evaluation of substrates
(§7) To order to determine the kcat/KM, the previously indicated proteases were tested under their corresponding buffer conditions. Substrates were serially diluted in water, and 2 µL of each dilution was added to 6 µL of assay buffer in a 384-well plate. The plate was briefly centrifuged to ensure proper mixing and to eliminate air bubbles. Fluorescence measurements were initiated by adding 2 µL of the protease solution (prepared in activity buffer) to each well, yielding a final volume of 10 µL. Reactions were monitored at 37 °C for 60 minutes using a plate reader set to excitation/emission wavelengths of 355/460 nm. Control wells without enzyme contained 8 µL of assay buffer, instead of enzyme, and 2 µL of substrate. All measurements were performed in at least triplicate. The initial linear portion of each fluorescence progress curve was used to calculate initial reaction velocities (RFU/min). Calibration curves using free AMC were generated under the corresponding buffer and assay conditions to allow extrapolation of RFU values to µM concentrations. Michaelis-Menten kinetic parameters K M, kcat and kcat/,KM were determined using […]
(§8) GraphPad Prism version 10.4.1. […]
(§9) determined due to poor model fit. […]

Recombinant Human FAPα = biological target: T2, Recombinant Human FAPα (Homo sapiens, UniProt Q12884); test: Kinetic evaluation of substrates; assay type: biochemical; conditions: for Km / kcat/KM / kcat: 10 nM FAPα, 37 °C, 60 min, Michaelis-Menten fit, triplicates; for Km: 50 mM Tris, 1 M NaCl, 1 mg/mL BSA, pH 7.5, ex/em 355/460 nm; for Km / kcat: ± SD
T2 construct: purchased R&D Systems 3715-SE-010
T2 sequence (Q12884 1-760): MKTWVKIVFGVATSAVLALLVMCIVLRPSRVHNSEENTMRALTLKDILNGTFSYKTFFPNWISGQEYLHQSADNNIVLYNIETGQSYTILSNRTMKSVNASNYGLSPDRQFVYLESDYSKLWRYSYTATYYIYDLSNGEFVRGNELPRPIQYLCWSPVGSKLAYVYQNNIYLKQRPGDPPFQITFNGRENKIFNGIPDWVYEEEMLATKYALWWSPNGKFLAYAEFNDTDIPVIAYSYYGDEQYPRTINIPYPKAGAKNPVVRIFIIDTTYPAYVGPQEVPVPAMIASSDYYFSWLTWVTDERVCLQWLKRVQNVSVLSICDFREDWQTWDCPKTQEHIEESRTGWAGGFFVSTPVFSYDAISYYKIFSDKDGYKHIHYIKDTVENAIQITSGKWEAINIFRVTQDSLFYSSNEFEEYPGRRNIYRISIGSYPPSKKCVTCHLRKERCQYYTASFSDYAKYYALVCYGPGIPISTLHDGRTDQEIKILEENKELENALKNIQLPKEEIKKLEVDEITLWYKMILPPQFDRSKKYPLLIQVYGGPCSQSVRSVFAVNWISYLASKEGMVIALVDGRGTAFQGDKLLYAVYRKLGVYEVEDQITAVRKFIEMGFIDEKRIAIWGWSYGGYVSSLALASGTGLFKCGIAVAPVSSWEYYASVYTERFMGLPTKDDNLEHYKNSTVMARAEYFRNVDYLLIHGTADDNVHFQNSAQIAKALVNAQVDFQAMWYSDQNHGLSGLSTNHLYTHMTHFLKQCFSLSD
Procedure: as §1, §2, §3, §4, §5, §6, §7, §8, §9

[2] = 3 nM PREP, 37 °C, 60 min, Michaelis-Menten fit, triplicates

Km ([1]; 3 nM PREP, 25 mM Tris, 250 mM NaCl, 2.5 mM DTT, pH 7.5, 37 °C, 60 min, triplicates, ± SD, FAP33.2 and FAP33.2A6 showed substrate inhibition) [µM] | kcat [1, 2] [s⁻¹] | kcat/KM [1, 2] [M⁻¹ s⁻¹] | Km (Recombinant Human FAPα) [µM] | SI (selectivity index, coefficient of the proteases kcat/Km), DPP4 vs PREP ([1]; kcat/KM DPP4 over kcat/KM PREP) | SI (selectivity index, coefficient of the proteases kcat/Km), DPP4 vs FAPα (Recombinant Human FAPα; kcat/KM DPP4 over kcat/KM FAPα) | SMILES | SI (selectivity index, coefficient of the proteases kcat/Km), FAPα vs PREP [1] | kcat/KM (Recombinant Human FAPα) [M⁻¹ s⁻¹] | kcat (Recombinant Human FAPα) [s⁻¹] | Ki ([1]; 3 nM PREP, substrate inhibition, 37 °C) [µM]
161 ± 91 | 113.05 | 633723 | 145 ± 60 |  |  | Cc1cc(=O)oc2cc(NC(=O)[C@@H]3CCCN3C(=O)CNC(=O)OCc3ccccc3)ccc12 [zGP-AMC] (Cbz-Gly-Pro-{AMC}) | 0.24 | 155793 | 22.59 ± 4.99 | 
 |  |  |  |  |  | CC(C)C[C@@H]1NC(=O)[C@H](CC(N)=O)NC(=O)[C@H](CCC(N)=O)NC(=O)[C@H](Cc2ccccc2)NC(=O)[C@H](CO)NC(=O)[C@H](C(C)C)NC(=O)[C@@H](N)CSCc2cc(nn2CC(=O)N2CCC[C@H]2C(=O)Nc2ccc3c(CC(N)=O)cc(=O)oc3c2)CSC[C@@H](C(=O)NCC(N)=O)NC(=O)[C@H](CC(=O)O)NC1=O [FAP-33.2] (H-CVSFQNLDCG-NH2; linker 1-9 via X2; N-terminus assumed) | FAPα >>>PREP | 23633 | 0.709 ± 0.034 | 
 |  |  |  |  |  | CC(C)[C@@H]1NC(=O)[C@@H](N)CSCc2cc(n(CC(=O)N3CCC[C@H]3C(=O)Nc3ccc4c(CC(N)=O)cc(=O)oc4c3)n2)CSC[C@@H](C(=O)NCC(N)=O)NC(=O)[C@H](CC(=O)O)NC(=O)[C@H](C)NC(=O)[C@H](CC(N)=O)NC(=O)[C@H](CCC(N)=O)NC(=O)[C@H](Cc2ccccc2)NC(=O)[C@H](CO)NC1=O [FAP-33.2A6] (H-CVSFQNADCG-NH2; linker 1-9 via X1; N-terminus assumed) | FAPα >>>PREP | 28312 | 0.906 ± 0.050 | 34.4
 |  |  | 103 ± 31 | DPP4>>>PREP | 597 | Cc1cc(=O)oc2cc(NC(=O)[C@@H]3CCCN3C(=O)CN)ccc12 [GP-AMC] (H-Gly-Pro-{AMC}) |  | 637 |  | 
